Assay results reported in patent publication US20200108034A1, “USE OF CITRULLINE AND GLUTATHIONE TO INCREASE MUSCLE MASS” (KYOWA HAKKO BIO CO., LTD., priority 2017, published 2020).

Assays:
Assay type in all cases: in vivo, human
[1] = Body composition (body mass, DEXA fat mass, bioimpedance total body water) at days 0, 29, 57; settings: mean ± SEM, N = 25; for Fat Mass: DEXA; for Total Body Water: bioelectrical impedance
Description: (§1) Seventy-five resistance-trained (e.g., regular, resistance training thrice weekly for at least one year prior to the study) males between the ages of 18-35 and having a BMI between 18.5 and 30 kg/m^2 were divided into 3 groups of 25, wherein each group received one of the following supplements: (A) 2 g/day L-citrulline (CIT) and 200 mg/day glutathione (GSH), (B) 2 g/day L-citrulline malate only, or (C) 2.52 g/day of cellulose placebo. Participants were matched by total body mass and then randomly assigned a supplementation protocol in a double-blind fashion. Participants took their supplements one hour prior to their workout on exercise days. On non-exercise days, participants took their supplements in the morning with breakfast.
Body composition was measured at days 0, 29, and 57 during the study. Total body mass (kg) was determined on a standard dual beam balance scale (Detecto, Bridgeview, Ill.). Percent body fat, fat mass, and fat-free mass were determined using DEXA (Discovery Series W, commercially available from Hologic, Waltham, Mass.). Quality control calibration procedures were performed on a spine phantom (X-CALIBER Model DPA/QDR-1 anthropometric spine phantom, commercially available from Hologic, Waltham, Mass.) and a density step calibration phantom prior to each testing session. Total body water was determined with bioelectrical impedance spectroscopy (Tanita Inc., Arlington Heights, Ill.) using a low energy, high frequency current (500 micro amps at a frequency of 50 kHz).
Participants engaged in a supervised, periodized 4 day per week resistance-training program split into two upper and two lower extremity workouts per week for a total of 8 weeks. Prior to the workout, participants performed a standardized series of stretching exercises. The participants then performed an upper-body resistance-training program consisting of bench press, lat pull, shoulder press, seated row, shoulder shrugs, chest fly, biceps curl, triceps press down, and abdominal curls, twice per week, and a lower-body program consisting of leg press, back extension, step ups, leg curls, leg extension, heel raises, and abdominal crunches, also performed twice per week. Participants performed 3 sets of 10 repetitions with as much weight as they could lift per set (typically 70 to 80% of 1-RM). Rest periods between exercises and sets lasted no longer than 2 minutes.

[2] = Serum general clinical chemistry markers, day 0 and day 57; settings: mean ± SEM, N = 25
Description: as §1
(§2) Venous blood samples were obtained from the antecubital vein using a standard VACUTAINER™ apparatus into one tube for serum separation and one for whole blood. The serum separation tubes were allowed to stand at room temperature for 15 minutes and then centrifuged for 10 minutes, and serum was removed and placed into a microfuge tube. Blood samples were obtained prior to the first dose of supplement and prior to beginning the resistance training program (day 0) and after eight weeks of supplementation and resistance training (day 57).
(§3) Serum samples were assayed for the following general clinical chemistry markers: glucose, total protein, blood urea nitrogen, creatinine, BUN/creatinine ratio, AST, ALT, albumin, globulin, total bilirubin, alkaline phosphatase. Whole blood samples were assayed for standard cell blood counts with percentage differentials, such as hemoglobin, red blood cell counts, white blood cell counts, neutrophils, lymphocytes, monocytes, eosinophils, and basophils.

[3] = Whole blood cell counts with differentials, day 0 and day 57; settings: mean ± SEM; for Absolute basophils / Absolute eosinophils / Absolute lymphocytes / Absolute monocytes / Absolute neutrophils / Hb / Platelet / RBC / WBC: N = 25; for Red cell distribution width: N = 25, in % (unit assumed)
Description: as §1, §2, §3

[4] = Change in muscle mass after 8-week resistance training with supplementation
Description: as §1
Body composition was measured at days 0, 29, and 57 during the study. Total body mass (kg) was determined on a standard dual beam balance scale (Detecto, Bridgeview, Ill.). Percent body fat, fat mass, and fat-free mass were determined using DEXA (Discovery Series W, commercially available from Hologic, Waltham, Mass.). […] Total body water was determined with bioelectrical impedance spectroscopy (Tanita Inc., Arlington Heights, Ill.) using a low energy, high frequency current (500 micro amps at a frequency of 50 kHz). […]

**Q.** With `NC(=O)NCCC[C@H](N)C(=O)O.O=C(O)CC(O)C(=O)O` [CIT-malate, L-citrulline malate] as the compound, how does the “Fat Mass” value ([1]; Baseline) read?
**A.** 11.2 ± 1.04 kg

**Q.** And the “Total Body Water” value ([1]; Baseline)?
**A.** 47.9 ± 1.14 kg

**Q.** And the “Body Mass” value ([1]; Baseline)?
**A.** 79.2 ± 2.50 kg

**Q.** What about the “Fat Mass” value ([1]; supplementation week 4) of the same compound?
**A.** 11.5 ± 0.92 kg

**Q.** And the “Total Body Water” value ([1]; supplementation week 4)?
**A.** 48.1 ± 1.16 kg

**Q.** And the “Body Mass” value ([1]; supplementation week 4)?
**A.** 79.5 ± 2.52 kg

**Q.** What about the “Fat Mass” value ([1]; supplementation week 8) of the same compound?
**A.** 11.9 ± 0.96 kg

**Q.** What about the “Total Body Water” value ([1]; supplementation week 8) of the same compound?
**A.** 48.4 ± 1.14 kg

**Q.** What about the “Body Mass” value ([1]; supplementation week 8) of the same compound?
**A.** 80.1 ± 2.42 kg

**Q.** What about the ALP ([2]; 8 weeks) of the same compound?
**A.** 73.0 ± 4.5 IU/L

**Q.** And the ALT ([2]; 8 weeks)?
**A.** 22.9 ± 1.8 IU/L

**Q.** What about the AST ([2]; 8 weeks) of the same compound?
**A.** 21.3 ± 1.3 IU/L

**Q.** And the Albumin ([2]; 8 weeks)?
**A.** 4.7 ± 0.05 g/dL

**Q.** And the Albumin/Globulin ([2]; 8 weeks)?
**A.** 1.9 ± 0.06

**Q.** And the Bilirubin ([2]; 8 weeks)?
**A.** 0.6 ± 0.05 mg/dL

**Q.** And the Creatinine ([2]; 8 weeks)?
**A.** 1.1 ± 0.04 mg/dL

**Q.** What about the Glucose ([2]; 8 weeks) of the same compound?
**A.** 101.8 ± 3.9 mg/dL

**Q.** And the Total protein ([2]; 8 weeks)?
**A.** 7.2 ± 0.1 g/dL

**Q.** And the Urea nitrogen ([2]; 8 weeks)?
**A.** 16.9 ± 0.7 mg/dL

**Q.** And the ALP ([2]; Baseline)?
**A.** 74.9 ± 4.5 IU/L

**Q.** What about the ALT ([2]; Baseline) of the same compound?
**A.** 24.9 ± 2.4 IU/L

**Q.** And the AST ([2]; Baseline)?
**A.** 23.8 ± 1.5 IU/L

**Q.** What about the Albumin ([2]; Baseline) of the same compound?
**A.** 4.9 ± 0.05 g/dL

**Q.** What about the Albumin/Globulin ([2]; Baseline) of the same compound?
**A.** 2.0 ± 0.07

**Q.** And the Bilirubin ([2]; Baseline)?
**A.** 0.7 ± 0.08 mg/dL

**Q.** What about the Creatinine ([2]; Baseline) of the same compound?
**A.** 1.1 ± 0.03 mg/dL

**Q.** And the Glucose ([2]; Baseline)?
**A.** 97.5 ± 3.4 mg/dL

**Q.** And the Total protein ([2]; Baseline)?
**A.** 7.4 ± 0.1 g/dL

**Q.** What about the Urea nitrogen ([2]; Baseline) of the same compound?
**A.** 16.8 ± 0.8 mg/dL

**Q.** And the Absolute basophils ([3]; 8 weeks)?
**A.** 26.8 ± 3.2 µL⁻¹

**Q.** What about the Absolute eosinophils ([3]; 8 weeks) of the same compound?
**A.** 312.8 ± 79.5 µL⁻¹

**Q.** And the Absolute lymphocytes ([3]; 8 weeks)?
**A.** 1902.7 ± 85.5 µL⁻¹

**Q.** And the Absolute monocytes ([3]; 8 weeks)?
**A.** 370.5 ± 30.7 µL⁻¹

**Q.** And the Absolute neutrophils ([3]; 8 weeks)?
**A.** 3292.4 ± 318.9 µL⁻¹

**Q.** What about the Hb ([3]; 8 weeks) of the same compound?
**A.** 15.0 ± 0.1 g/dL

**Q.** And the Platelet ([3]; 8 weeks)?
**A.** 212.4 ± 8.0 ×10^3/μL

**Q.** What about the RBC ([3]; 8 weeks) of the same compound?
**A.** 5.1 ± 0.06 ×10^6/μL

**Q.** And the WBC ([3]; 8 weeks)?
**A.** 5.7 ± 0.3 ×10^3/μL

**Q.** What about the “Red cell distribution width” value ([3]; 8 weeks) of the same compound?
**A.** 13.5 ± 0.4

**Q.** And the Absolute basophils ([3]; Baseline)?
**A.** 31.2 ± 3.3 µL⁻¹

**Q.** What about the Absolute eosinophils ([3]; Baseline) of the same compound?
**A.** 130.5 ± 16.6 µL⁻¹

**Q.** And the Absolute lymphocytes ([3]; Baseline)?
**A.** 2032.1 ± 131.4 µL⁻¹

**Q.** What about the Absolute monocytes ([3]; Baseline) of the same compound?
**A.** 371.8 ± 25.6 µL⁻¹

**Q.** And the Absolute neutrophils ([3]; Baseline)?
**A.** 3652.2 ± 306.1 µL⁻¹

**Q.** And the Hb ([3]; Baseline)?
**A.** 15.1 ± 0.2 g/dL

**Q.** And the Platelet ([3]; Baseline)?
**A.** 218.2 ± 10.9 ×10^3/μL

**Q.** And the RBC ([3]; Baseline)?
**A.** 5.1 ± 0.07 ×10^6/μL

**Q.** And the WBC ([3]; Baseline)?
**A.** 6.2 ± 0.3 ×10^3/μL

**Q.** And the “Red cell distribution width” value ([3]; Baseline)?
**A.** 13.3 ± 0.1

**Q.** What about the “participants who displayed increases in muscle mass at both 4 and 8 weeks” value ([4]; FIG. 2, 25 per group) of the same compound?
**A.** 36%

**Q.** What about the “change in muscle mass” value ([4]; at 4 and 8 weeks, vs placebo, heavy resistance training, FIGS. 1A and 1B) of the same compound?
**A.** increase in muscle mass compared to persons receiving only placebo
